Test results reported in ChEMBL document CHEMBL6103654, “Design, Biological Characterization, and Discovery of Capromorelin Derivatives as Oral Growth Hormone Secretagogue Receptor Type 1a Agonist for the Treatment of Growth Hormone Deficiency” (J Med Chem, 2025).

Assays:
[1] = Agonist activity at human GHSR expressed in CHO cells incubated for 60 min by FLIPR assay; format: cell-based; conditions: 1 h
CHO [2] = test: Agonist activity at human GHSR expressed in CHO cells at maximum concentration incubated for 60 min by FLIPR assay relative to control; format: cell-based
CHO [3] = test: Agonist activity at dog GHSR expressed in CHO cells at maximum concentration incubated for 60 min by FLIPR assay relative to control; format: cell-based; conditions: Canis lupus familiaris, filed as agonist
[4] = Agonist activity at dog GHSR expressed in CHO cells incubated for 60 min by FLIPR assay; format: cell-based; conditions: 1 h
[5] = Agonist activity at monkey GHSR expressed in CHO cells incubated for 60 min by FLIPR assay; format: cell-based; conditions: Macaca mulatta, 1 h
[6] = biological target: Growth hormone secretagogue receptor type 1 (Rattus norvegicus) (UniProt O08725); test: Agonist activity at rat GHSR expressed in CHO cells at maximum concentration incubated for 60 min by FLIPR assay relative to control; format: functional, cell-based; conditions: filed as agonist
Chain of Growth hormone secretagogue receptor type 1 (Rattus norvegicus) (O08725 whole entry): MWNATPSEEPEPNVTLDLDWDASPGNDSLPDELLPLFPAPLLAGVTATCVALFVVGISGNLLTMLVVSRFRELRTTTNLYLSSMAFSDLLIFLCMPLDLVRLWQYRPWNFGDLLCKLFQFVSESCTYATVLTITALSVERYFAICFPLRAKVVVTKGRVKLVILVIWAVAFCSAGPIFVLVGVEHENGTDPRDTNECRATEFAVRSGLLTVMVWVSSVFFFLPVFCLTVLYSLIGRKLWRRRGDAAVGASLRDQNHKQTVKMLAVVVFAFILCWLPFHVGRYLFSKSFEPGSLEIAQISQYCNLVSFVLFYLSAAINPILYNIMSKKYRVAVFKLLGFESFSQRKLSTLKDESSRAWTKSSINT

[7] = biological target: Growth hormone secretagogue receptor type 1 (Rattus norvegicus, UniProt O08725); test: Agonist activity at rat GHSR expressed in CHO cells incubated for 60 min by FLIPR assay; format: functional, cell-based
Chain of Growth hormone secretagogue receptor type 1 (O08725 whole entry): as above

CHO [8] = test: Agonist activity at monkey GHSR expressed in CHO cells at maximum concentration incubated for 60 min by FLIPR assay relative to control; format: cell-based; conditions: Macaca mulatta, filed as agonist
[9] = Volume of distribution in male Sprague-Dawley rat at 1 mg/kg, iv administered as single dose measured after 4 hrs; format: ADME, organism-based; conditions: in vivo
[10] = AUC in male Sprague-Dawley rat at 2 mg/kg, po administered as single dose measured after 4 hrs; format: ADME, organism-based; conditions: in vivo
[11] = Tmax in male Sprague-Dawley rat at 2 mg/kg, po administered as single dose measured after 4 hrs; format: ADME, organism-based; conditions: in vivo
[12] = Elimination half life in male Sprague-Dawley rat at 1 mg/kg, iv administered as single dose measured after 4 hrs; format: ADME, organism-based; conditions: in vivo, read-out: beta t1/2 (converted)
[13] = Oral bioavailability in male Sprague-Dawley rat at 2 mg/kg administered as single dose measured after 4 hrs; format: ADME, organism-based; conditions: in vivo
[14] = Cmax in male Sprague-Dawley rat at 2 mg/kg, po administered as single dose measured after 4 hrs; format: ADME, organism-based; conditions: in vivo
[15] = Elimination half life in male Sprague-Dawley rat at 2 mg/kg, po administered as single dose measured after 4 hrs; format: ADME, organism-based; conditions: in vivo, read-out: beta t1/2 (converted)
[16] = Clearance in male Sprague-Dawley rat plasma at 1 mg/kg, iv administered as single dose measured after 4 hrs; format: ADME, organism-based

| EC50 [1] [nM] | EC50 [4] [nM] | EC50 [5] [nM] | Activity [6] [%] | EC50 [7] [nM] | SMILES | Activity (CHO [2]; filed as agonist) [%] | Activity (CHO [3]) [%] | Activity (CHO [8]) [%] | Activity (CHO [2]) [%] | other results |
| --- | --- | --- | --- | --- | --- | --- | --- | --- | --- | --- |
| 447 |  |  |  |  | CC(C)(N)C(=O)N[C@H](COCc1ccccc1)C(=O)N1C2CCC1[C@@]1(Cc3ccccc3)C(=O)NN=C1C2 (stereo partly specified) | 41.7 |  |  |  |  |
| 160 |  |  |  |  | CC1N(C(=O)[C@@H](COCc2ccccc2)NC(=O)C(C)(C)N)CCC2=NN(C)C(=O)[C@@]21Cc1ccccc1 (stereo partly specified) | 97.4 |  |  |  |  |
| 0.89 | 0.043 | 0.034 | 97.1 | 0.009 | CC(C)(N)C(=O)N[C@H](COCc1ccccc1)C(=O)N1CCC2=NN(CC3CC3)C(=O)[C@]2(Cc2ccccc2)C1 | 134 | 120 | 104 |  |  |
| 1.19 | 0.048 | 0.02 | 104 | 0.014 | CC(C)(N)C(=O)N[C@H](COCc1ccccc1)C(=O)N1CCC2=NN(C3CCC3)C(=O)[C@]2(Cc2ccccc2)C1 | 107 | 125 | 104 |  | Vd [9]: 3.5 L/kg; AUC at 4 h [10]: 21.1 ng·h/mL; Tmax [11]: 30 min; half-life [12]: 48 min; bioavailability [13]: 3.3%; Cmax [14]: 8.4 ng/mL; half-life [15]: 109 min; clearance [16]: 50.5 mL/min/kg |
| > 1000 |  |  |  |  | Cn1nc2c(c1-c1ccccc1)CCN(C(=O)[C@@H](COCc1ccccc1)NC(=O)C(C)(C)N)C2 |  |  |  | 18.2 |  |

More lines, now with the values behind:

| SMILES | EC50 [1] [nM] | EC50 [4] [nM] | EC50 [5] [nM] | Activity [6] [%] | EC50 [7] [nM] | Activity (CHO [2]; filed as agonist) [%] | Activity (CHO [3]) [%] | Activity (CHO [8]) [%] | Activity (CHO [2]) [%] | other results |
| --- | --- | --- | --- | --- | --- | --- | --- | --- | --- | --- |
| CC(C)(N)C(=O)N[C@H](COCc1ccccc1)C(=O)N1CCc2ccn(Cc3ccccc3)c2C1 | 735 |  |  |  |  | 47.6 |  |  |  |  |
| CN1N=C2CCN(C(=O)[C@@H](COCc3ccccc3)NC(=O)C3CCNCC3)C[C@@]2(Cc2ccccc2)C1=O | > 1000 | 143 | 102 | 106 | 39.3 |  | 91.6 | 94.9 | 30.5 |  |
| CC(C)(N)C(=O)N[C@H](COCc1ccccc1)C(=O)N1CC(C)(C)C2=NNC(=O)[C@]2(Cc2ccccc2)C1 | 53.3 |  |  |  |  |  |  |  | 25.4 |  |
| CN1N=C2C(C)(C)CN(C(=O)[C@@H](COCc3ccccc3)NC(=O)C(C)(C)N)C[C@@]2(Cc2ccccc2)C1=O | 63.7 |  |  |  |  | 82.2 |  |  |  |  |
| Cn1nc2c(c1-c1ccccc1)CN(C(=O)[C@@H](COCc1ccccc1)NC(=O)C(C)(C)N)CC2 | 72.4 |  |  |  |  | 72 |  |  |  |  |
